For one test, the system named is synthetic Aβ(1-42). Nature of the test: Inhibition of Aβ beta-pleated sheet formation (thioflavin T fluorescence). It is filed as biochemical. Particulars: test compound 10 μM, ThT 3 μM, PBS pH 6.0, 12 hours; stated as alternative: this 'or' IL-1β release, tested in at least one test. The source says: The deposition of amyloid β-peptide (Aβ) is associated with the development of Alzheimer's disease. See, for example, G. G. Glenner et al. (1984) Biochem. Biophys. Res. Commun., 120:885-890; and R. E. Tanzi (1989) Ann. Med, 21:91-94. Accordingly, compounds which effectively disrupt the formation of Aβ(1-40) or Aβ(1-42) beta-pleated sheets are potentially useful for preventing and/or reversing such amyloid deposits. Thioflavin T (ThT) is known to rapidly associate with beta-pleated sheets, particularly the aggregated fibrils of synthetic Aβ(1-42). This association gives rise to an excitation maximum at 440 nm and to an emission at 490 nm.
The experiments were performed using a CytoFluor II fluorescence plate reader having the following parameters:
Into each well was aliquoted 95 μl of ThT (3 μM) prepared in PBS (pH 6.0), 2 μL of the compound to be tested (10 μM) prepared with 0.05% of methylcellulose in PBS (pH 6.0), and 3 μL of Aβ(1-42)(3 μg) prepared with dH2 O. The fluorescence measurement began when the Aβ(1-42) was added and continued for a total of 12 hours. The percent inhibition of beta-pleated sheet formation was calculated from the relative fluorescence unit difference between aggregation in the presence and in the absence of the test compounds. Inhibition of Aβ(1-42) beta-pleated sheet formation by at least 30% compared to the controls is considered significant in this test.

Test [1] concerns IL-1β release, THP-1 cells. Nature of the test: Reduction of β-amyloid-induced increased release of interleukin-1β in LPS-stimulated THP-1 cells (ELISA). It is filed as cell-based. Particulars: Homo sapiens, test compound 100 μM, LPS 0.5 μg/mL + Aβ(25-35) 5 μM, 48 hours, stated as alternative: this 'or' Aβ(1-42) sheet formation, tested in at least one test, read-out: inhibition of β-amyloid-induced increase release of interleukin-1β compared to the controls. The protocol: THP-1 cells, a human monocyte cell line from American Type Culture Collection, were grown in RPMI-1640 medium plus 10% fetal bovine serum (FBS, not heat-inactivated) in T-flasks. The medium was changed every two days by spinning down the cells (800 rpm, 5 minutes) and adding the same fresh medium. Alternatively, the cultures were maintained by supplementation with fresh medium. The cultures were maintained at a cell concentration ranging from between 1×10^5 and 1×10^6 cells/mL. Because sera may contain unknown factors which can affect macrophage/monocyte IL-1 production, the FBS was reduced to 5% for 24 hours. The FBS was further reduced to 2% over two days prior to starting each experiment. The cells were collected by centrifugation and resuspended in media containing 2% FBS. Cell numbers were calculated and cells were plated on 24-well plates (3×10^5 cells/0.6 mL/well). Cells were then treated with LPS (0.5 μg/mL) alone or in combination with Aβ peptides (5 μM). […]
1L-1β secretions into medium by LPS-stimulated THP-1 cells, in the presence or absence of amyloid peptides and a test compound, were assayed with a commercially available ELISA kit (R & D Systems). […] Color development was stopped with 2 N sulfuric acid and the optical density of the standard and the test samples was measured at 450 nm. The amount of IL-1β present in the samples were calculated based upon a standard curve. […]

The source of these data is patent US6015831A, “Thiophene nitrone compounds” (Centaur Pharmaceuticals, Inc., priority 1999, dated 2000).

SMILES strings stand for the structures.

The inhibition is the share of the control response that was lost under treatment. With `COc1ccc(Sc2ccc(C=[N+]([O-])C(C)(C)C)s2)cc1` [Example 1, α-[2-(4-Methoxyphenylthio)-5-thienyl]-N-tert-butylnitrone], the “inhibition of Aβ(1-42) beta-pleated sheet formation compared to the controls” value in the test with synthetic Aβ(1-42) is recorded as “at least 30%”. In addition, the inhibition at 100 µM in test [1] was at least 30%.
Consider `COc1ccc(Sc2ccc(C=[N+]([O-])C3CCCCC3)s2)cc1` [Example 2, α-[2-(4-Methoxyphenylthio)-5-thienyl]-N-cyclohexylnitrone], for which the “inhibition of Aβ(1-42) beta-pleated sheet formation compared to the controls” value in the test with synthetic Aβ(1-42) was “at least 30%”. Besides, the inhibition at 100 µM in test [1] was at least 30%.
